In publication PMC9241644, “Evaluation of Novel Quorum Sensing Inhibitors Targeting Auto-Inducer 2 (AI-2) for the Control of Avian Pathogenic Escherichia coli Infections in Chickens” (Microbiology Spectrum, 2022):

Tests used:
[1] = PK profile of QSI-5 and SDM in chicken plasma (LC-MS); assay type: in vivo, chickens
Protocol: The amount of QSI-5 and SDM in chicken plasma was measured using LC-MS. The optimized dose of QSI-5 (1 mg/L) and the therapeutic dose of SDM (495.323 mg/L) (0.05%) were administered orally as a single dose. Blood was collected individually from five chickens per group at different time points (0 h, 0.5 h, 1 h, 2 h, 4 h, 8 h, 12 h, 24 h) after administration of QSI-5 and SDM in vacutainer EDTA (10.8 mg) tubes (Becton, Dickinson, NJ, USA), blood was placed on ice for 1 h to clot, plasma was separated by centrifuging at 2,000 × g for 10 min at 4°C and stored at −80°C °C for LC-MS analysis. Plasma protein was precipitated by adding cold methanol and 10 μL (1 μg/mL) of an internal standard (IS) heavy-labeled phenylalanine (dissolved in 0.1% formic acid) was added to each 100 μL aliquot. The mixture was then incubated at −20°C for 30 min and centrifuged at 1300 × g for 25 min at 2°C. Sixty μL of the supernatant was pipetted into LC vials. For standard calibration, solutions of 0.0, 0.001, 0.005, 0.01, 0.05, 0.1, 0.5, 1, and 5 μg/mL of QSI-5 and SDM were prepared and 20 μL of each standard solution was added to 80 μL of cold methanol and IS as mentioned above. All samples were run by injecting 5 μL on an Agilent Poroshell 120 SB-C18 (2 × 100 mm in diameter, 2.7 μm particle sizes). The LC system (Thermo Fisher Scientific UltiMate 3000 HPLC) was used with solvent A (10 mM ammonium formate and 0.1% formic acid) and solvent B (methanol with a flow rate of 200 μL/min). The gradient was set to 2% B at 2 min, increased from 2% to 20% at 5 min, 40% at 7.5 min, and reached 90% after 9 min. The gradient was sustained at 90% B for 11 min and then decreased to 2% at 12 min and was held for equilibration until the run ended after 15 min. The mass spectrometer (Thermo Fisher Scientific Quantiva Triple Quadrupole) was set to multiple reactions monitoring mode (SRM) with a heated electrospray ionization source (ESI) in positive mode at 3.5 kV. Drug targets were monitored for QSI-5 at transitions 309.26→105.1 m/z and 309.26→203.15 m/z at 28 and 20 V collision energy, respectively, and for SDM at transitions 311.11→156.11 m/z and 311.11→245.07 m/z at 21 and 18 V CE. The analysis of plasma samples was performed in Campus Chemical Instrumentation Center, Mass Spectrometry and Proteomics Facility (CCIC, MS&P), The Ohio State University (https://live-ccic.pantheonsite.io/MSP).

[2] = tested on: Rif^R APEC O78; assay: Optimization of therapeutic dose of QSI-5 in drinking water, APEC-infected chickens; assay type: in vivo, Escherichia coli; conditions: for mortality reduction compared with PC group: PC normalized to 100%; for Mortality rate % (Nr.) / Average lesion severity, Lung / Average lesion severity, Liver / Average lesion severity, Heart / Average lesion severity, Airsac / Average APEC load, Kidney / Average APEC load, Lung / Average APEC load, Heart / Average APEC load, Liver: Table S2; for Mortality rate % (Nr.): PC 88.9 (8/9); for Average lesion severity, Lung: PC 1.11; for Average lesion severity, Liver: PC 2.11; for Average lesion severity, Heart: PC 2.78; for Average lesion severity, Airsac: PC 3.11; for Average APEC load, Kidney: PC 7.84; for Average APEC load, Lung: PC 7.93; for Average APEC load, Heart: PC 8.37; for Average APEC load, Liver: PC 8.46
Description: Chickens were monitored for clinical signs for 8 DPI. Any chickens moribund during this period were humanely euthanized and necropsied to determine bacterial load in the internal organs (liver, heart, lung, and kidney). Internal organs were aseptically collected, weighed and suspended in 1× PBS, the amount of PBS added was adjusted based on the organ size to make a suspension, the organ size and amount of PBS added were included in the final calculation of the CFU. The samples were homogenized, serially diluted 10-fold, plated on MacConkey agar (Remel, CA, USA) containing 50 μg/mL rifampicin, and incubated at 37°C for 24 h to determine the CFU/g. Pathological lesions severity in internal organs (pericarditis, perihepatitis, airsacculitis, and lung congestion) was scored as described previously ([21], [59]). At 8 DPI, the remaining chickens were humanely euthanized and necropsied, lesions were scored, and the APEC load was quantified in internal organs as described above.
One-day-old broiler chickens (n = 10/group) (Case Farms Ohio Hatchery, Strasburg, OH, USA) were used in this experiment. QSI-5 was synthesized in-house in the Fuchs laboratory (College of Pharmacy, OSU) via reductive amination reaction of commercially available 3-phenylpropionaldehyde with 1-(4-methylbenzyl) piperazine in the presence of acetic acid and sodium triacetoxyborohydride (Fig. S4). QSI-5 was administered daily in drinking water containing 0.05% DMSO at doses of 1 mg/L, 5 mg/L, 10 mg/L, and 20 mg/L for seven consecutive days starting from day 4 to day 10 of age. The amount of drinking water given daily was calculated based on the age of chickens (http://www.poultryhub.org/nutrition/nutrient-requirements/water-consumption-rates-for-chickens/). Chickens were infected with Rif^r APEC O78 (5 × 10^6 CFU/chicken) on day 5 as described above. The PC (0.05% DMSO treated and infected) and NC (non-treated and non-infected) control groups were included. The clinical signs and the daily mortality were recorded for 8 DPI. Dead chickens were necropsied, and APEC load was quantified in the internal organs as mentioned above. At 8 DPI, the remaining chickens were necropsied, lesions were scored, and the APEC load was quantified in internal organs as described above.

[3] = single oral dose (QSI-5 1 mg/L, SDM 495.323 mg/L)

## Cc1ccc(CN2CCN(CCCc3ccccc3)CC2)cc1 [QSI-5]
[1]; single oral dose
  half-life: short half-life
  time by which excreted: ≤ 24 HPT
[1]; [3]
  maximum concentration in plasma (Cmax): 0.76 ng/mL
  time of peak concentration in plasma: 2 HPT
[1]; single oral dose (QSI-5 1 mg/L, SDM 495.323 mg/L), h posttreatment
  time at which absorbed / detected in blood: 0.5 HPT
[2]; QSI-5 1 mg/L in drinking water 7 days, s/c APEC O78 5 × 10^6 CFU/chicken
  mortality reduction compared with PC group: 58%
[2]; QSI-5 5 mg/L in drinking water 7 days
  mortality reduction compared with PC group: 25%
[2]; QSI-5 10 mg/L in drinking water 7 days
  mortality reduction compared with PC group: 50%
[2]; QSI-5 20 mg/L in drinking water 7 days
  mortality reduction compared with PC group: 25%
[2]; QSI-5 1 mg/L, (3/8)
  Mortality rate % (Nr.): 37.5%
[2]; QSI-5 1 mg/L
  Average lesion severity, Lung: 0.33
  Average lesion severity, Liver: 1.25
  Average lesion severity, Heart: 1.63
  Average lesion severity, Airsac: 1.38
  Average APEC load, Kidney: 5.06 Log CFU/ g of tissue
  Average APEC load, Lung: 5.68 Log CFU/ g of tissue
  Average APEC load, Heart: 5.71 Log CFU/ g of tissue
  Average APEC load, Liver: 5.33 Log CFU/ g of tissue
[2]; QSI-5 5 mg/L, (6/9)
  Mortality rate % (Nr.): 66.6%
[2]; QSI-5 5 mg/L
  Average lesion severity, Lung: 0.38
  Average lesion severity, Liver: 1.33
  Average lesion severity, Heart: 1.89
  Average lesion severity, Airsac: 1.33
  Average APEC load, Kidney: 6.10 Log CFU/ g of tissue
  Average APEC load, Lung: 5.86 Log CFU/ g of tissue
  Average APEC load, Heart: 6.09 Log CFU/ g of tissue
  Average APEC load, Liver: 6.03 Log CFU/ g of tissue
[2]; QSI-5 10 mg/L, (4/9)
  Mortality rate % (Nr.): 44.4%
[2]; QSI-5 10 mg/L
  Average lesion severity, Lung: 0.78
  Average lesion severity, Liver: 2.11
  Average lesion severity, Heart: 2.44
  Average lesion severity, Airsac: 2.33
  Average APEC load, Kidney: 6.20 Log CFU/ g of tissue
  Average APEC load, Lung: 6.37 Log CFU/ g of tissue
  Average APEC load, Heart: 7.32 Log CFU/ g of tissue
  Average APEC load, Liver: 5.84 Log CFU/ g of tissue
[2]; QSI-5 20 mg/L, (6/9)
  Mortality rate % (Nr.): 66.6%
[2]; QSI-5 20 mg/L
  Average lesion severity, Lung: 0.44
  Average lesion severity, Liver: 1.22
  Average lesion severity, Heart: 2.11
  Average lesion severity, Airsac: 1.67
  Average APEC load, Kidney: 6.56 Log CFU/ g of tissue
  Average APEC load, Lung: 6.58 Log CFU/ g of tissue
  Average APEC load, Heart: 6.69 Log CFU/ g of tissue
  Average APEC load, Liver: 6.53 Log CFU/ g of tissue
